In paper PMC3831620 (Naunyn-Schmiedeberg's archives of pharmacology, 2012):
Read-outs that look alike come from different tables or passages of the source.

Assays:
[1] = system: any adenosine receptor subtype; assay: Radioligand competition binding, stated for any adenosine receptor subtype; parameters: species or system human; details: for binding affinity in words: any adenosine receptor subtype, data not shown; for Ki: read-out: Ki at any of the adenosine receptor subtypes, any subtype
adenosine A1 receptor = target: T1, adenosine A1 receptor (Homo sapiens, UniProt P30542); assay: Radioligand competition binding, [3H]CCPA, membranes of transfected CHO cells; details: Ki A1 (curve of Figure 2), single experiment
T1 sequence (P30542 1-326): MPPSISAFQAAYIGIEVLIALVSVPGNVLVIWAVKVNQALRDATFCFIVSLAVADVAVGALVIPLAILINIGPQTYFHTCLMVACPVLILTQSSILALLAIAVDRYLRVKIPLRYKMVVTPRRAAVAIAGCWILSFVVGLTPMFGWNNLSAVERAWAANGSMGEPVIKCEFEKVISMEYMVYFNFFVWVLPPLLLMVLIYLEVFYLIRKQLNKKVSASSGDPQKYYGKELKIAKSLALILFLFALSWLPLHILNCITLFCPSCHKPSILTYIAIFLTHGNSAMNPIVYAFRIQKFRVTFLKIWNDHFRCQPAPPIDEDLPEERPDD

A2A adenosine receptor = A2A adenosine receptor (Homo sapiens, UniProt P29274); assay: A2A receptor-mediated stimulation of adenylyl cyclase, CHO membranes; type: biochemical; details: for efficacy compared to the full agonist NECA: A2A stimulation of adenylyl cyclase, 1 μM NECA control; for agonist character at the A2A adenosine receptor: compared to NECA
[2] = system: adenosine receptor subtype A1; details: murine models; ref Lorenzen et al. 1998; cited from earlier work
adenosine A3 receptor = target: T2, adenosine A3 receptor (Homo sapiens, UniProt P0DMS8); assay: Radioligand competition binding, [3H]HEMADO, membranes of transfected CHO cells
T2 sequence (P0DMS8 1-318): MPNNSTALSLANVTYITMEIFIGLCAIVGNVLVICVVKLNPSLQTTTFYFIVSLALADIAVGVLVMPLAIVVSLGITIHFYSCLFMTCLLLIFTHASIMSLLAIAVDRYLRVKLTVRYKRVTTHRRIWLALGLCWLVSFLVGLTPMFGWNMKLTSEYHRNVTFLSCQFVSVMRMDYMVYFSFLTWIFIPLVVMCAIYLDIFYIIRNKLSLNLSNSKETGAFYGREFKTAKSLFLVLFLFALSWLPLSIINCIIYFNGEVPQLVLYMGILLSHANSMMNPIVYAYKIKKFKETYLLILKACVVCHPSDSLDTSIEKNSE

A1 receptor = target: T3, A1 receptor (Homo sapiens, UniProt P30542); type: biochemical; details: for maximal inhibition of forskolin-stimulated adenylyl cyclase: compared with CCPA, n = 3
T3 sequence (P30542 1-326): T1 sequence (P30542 1-326)

A2B receptor = target: T4, A2B receptor (Homo sapiens, UniProt P29275); assay: A2B receptor-mediated adenylyl cyclase activity, CHO membranes; type: biochemical
T4 sequence (P29275 1-332): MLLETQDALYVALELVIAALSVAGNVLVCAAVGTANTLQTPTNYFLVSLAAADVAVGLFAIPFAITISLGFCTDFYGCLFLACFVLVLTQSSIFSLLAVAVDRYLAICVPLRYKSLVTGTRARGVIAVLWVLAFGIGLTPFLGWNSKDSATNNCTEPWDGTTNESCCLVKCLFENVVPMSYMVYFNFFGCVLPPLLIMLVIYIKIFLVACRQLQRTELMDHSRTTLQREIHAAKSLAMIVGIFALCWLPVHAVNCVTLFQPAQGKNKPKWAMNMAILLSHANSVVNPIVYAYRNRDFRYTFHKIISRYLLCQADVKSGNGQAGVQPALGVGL

adenosine A2A receptor = adenosine A2A receptor (Homo sapiens, UniProt P29274); assay: Radioligand competition binding, [3H]NECA, membranes of transfected CHO cells; details: Ki A2A (curve of Figure 2B), single experiment
[3] = hematopoietic cell transplant; ref Beitinjaneh et al. 2011, Chun et al. 1986, Ding et al. 2008; cited from earlier work

A2A adenosine receptor, sequence (P29274 whole entry): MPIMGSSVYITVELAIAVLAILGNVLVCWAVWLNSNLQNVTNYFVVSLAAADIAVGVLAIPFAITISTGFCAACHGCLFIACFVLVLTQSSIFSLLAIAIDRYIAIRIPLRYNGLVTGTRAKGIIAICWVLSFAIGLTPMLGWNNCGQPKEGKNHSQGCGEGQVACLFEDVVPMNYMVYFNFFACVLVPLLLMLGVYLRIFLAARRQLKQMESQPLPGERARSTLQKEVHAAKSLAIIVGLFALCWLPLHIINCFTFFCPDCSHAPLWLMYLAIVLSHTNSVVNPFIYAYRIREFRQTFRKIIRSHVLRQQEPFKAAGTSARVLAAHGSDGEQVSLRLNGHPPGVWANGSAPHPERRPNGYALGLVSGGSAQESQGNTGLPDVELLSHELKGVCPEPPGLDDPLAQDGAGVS
adenosine A2A receptor, sequence (P29274 whole entry): as above

| Compound | binding affinity in words [1] | Ki (adenosine A1 receptor) [µM] | IC50 (A2A adenosine receptor) [µM] | efficacy compared to the full agonist NECA (A2A adenosine receptor) | agonist character at the A2A adenosine receptor (A2A adenosine receptor) | Ki (adenosine A3 receptor) [µM] | IC50 (A1 receptor) [µM] | maximal inhibition of forskolin-stimulated adenylyl cyclase (A1 receptor) | Ki [1] [µM] | further results |
| --- | --- | --- | --- | --- | --- | --- | --- | --- | --- | --- |
| Nc1nc(F)nc2c1ncn2[C@@H]1O[C@H](COP(=O)(O)O)[C@@H](O)[C@@H]1O [Fludarabine monophosphate, 2-fluoroadenine-9-β-D-arabinofuranoside-5′phosphate] | no detectable affinity |  |  |  |  |  |  |  |  |  |
| Nc1nc(Cl)nc2c1ncn2[C@H]1C[C@H](O)[C@@H](CO)O1 [cladribine, 2-chloro-2′-deoxyadenosine] |  | 1.64 | 16.1 | ~40% | partial agonists | > 100 | > 10 | comparable to the full A1 receptor agonist CCPA |  | agonist character at adenosine receptor subtype A1 [2]: partial agonist |
| Nc1nc(Cl)nc2c1ncn2[C@@H]1O[C@H](CO)[C@@H](O)[C@@H]1F [clofarabine, 2-chloro-2′-arabino-fluoro-2′-deoxyadenosine] |  | 0.248 | 9.8 | about 50% | partial agonists |  |  | comparable to the full A1 receptor agonist CCPA |  | EC50 (A2B receptor): > 100 µM; Ki (adenosine A2A receptor): 17.5 µM; Ki (adenosine A3 receptor; Ki A3 (curve of Figure 2B), [3H]HEMADO, single experiment): 8.28 µM; efficacy in decreasing adenylyl cyclase activity, comparison (A1 receptor; 10 μM, versus equivalent concentrations of fludarabine or cladribine): more efficacious; IC50 (A1 receptor; IC50 A1 agonist, adenylyl cyclase inhibition, values in text and abstract): 3.1 µM |
| Nc1ccn([C@@H]2O[C@H](CO)[C@@H](O)[C@@H]2O)c(=O)n1 [cytarabine, cytosine β-D-arabinofuranoside] | no detectable affinity |  |  |  |  |  |  |  | > 100 |  |
| Nc1nc(F)nc2c1ncn2[C@@H]1O[C@H](CO)[C@@H](O)[C@@H]1O [fludarabine, 2-fluoroadenine-9-β-D-arabinofuranoside] |  | 2.24 |  |  |  | > 100 | > 10 | comparable to the full A1 receptor agonist CCPA |  | patients experiencing mild to severe neurological toxicities [3]: 2-10% |
| Nc1ccn([C@@H]2O[C@H](CO)[C@@H](O)C2(F)F)c(=O)n1 [gemcitabine, 2′,2′-difluoro-2′-deoxycytidine] | no detectable affinity |  |  |  |  |  |  |  | > 100 |  |
